The record followed here is patent publication US20240409536A1, “COMPOUNDS AND METHODS FOR MODULATING SPLICING” (REMIX THERAPEUTICS INC., priority 2021, published 2024).

A word on the IC50: it is the midpoint of a concentration-inhibition curve. As usually defined, the AC50 is the midpoint of the concentration-response curve, whichever way the signal moves. A low value points to activity at low concentration.

One assay has as its system SMN2 mRNA. Nature of the assay: Gene panel canonical junction qPCR assay, SMN2 CJ mRNA decrease. In kind it is cell-based, human. The note with it: Homo sapiens, canonical junction qPCR, read-out: SMN2 IC50 (decrease in CJ mRNA levels). An outline of the steps:
(§1)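 IC50 values describe loss of canonical-junction transcript, fitted by 4-parameter logistic to percent response derived from fixed ΔCt windows. Read-out: RT-qPCR on lysates of compound-treated K562 or A673 cells, probes overlapping the exon junction, ΔΔCt versus housekeeping gene and DMSO control.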

Assay [1] concerns MYB mRNA. Briefly: Splicing RT-qPCR assay, MYB canonical (CJ) and alternative (AJ) junction mRNA. In kind it is cell-based. The note with it: Homo sapiens, A673 or K562 cells, 24 hours; for IC50: decrease in canonical junction mRNA; for AC50: increase in alternative junction mRNA. The gist of the method: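 Splice switching was scored by qPCR detection of the new alternative-exon junction (AJ) alongside the canonical junction (CJ). Cell lines A673 or K562 received compound 24 h, top dose 10 uM final.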
In general terms: In qPCR the cycle at which signal appears reflects the starting amount.

The test system of assay [2] is MYB mRNA. Nature of the assay: Gene panel canonical junction qPCR assay, MYB CJ mRNA decrease. Type of assay: cell-based, human. The note with it: Homo sapiens, canonical junction qPCR, read-out: MYB IC50 (decrease in CJ mRNA levels). An outline of the steps: as §1
Another assay concerns HTT mRNA. Briefly: Gene panel canonical junction qPCR assay, HTT CJ mRNA decrease. In kind it is cell-based, human. The settings on record: Homo sapiens, canonical junction qPCR, read-out: HTT IC50 (decrease in CJ mRNA levels). The gist of the method:
as §1

For `CNC1CCN(c2ccc(C(=O)Nc3cc(F)c4nc(C)cn4c3)c3ncc(OC)nc23)C1` (stereo in doubt) [Compound 227, (R)—N-(8-fluoro-2-methylimidazo[1,2-a]pyridin-6-yl)-2-methoxy-8-(3-(methylamino)pyrrolidin-1-yl)quinoxaline-5-carboxamide 2,2,2-trifluoroacetate], the IC50 in the assay on SMN2 mRNA was less than 100 nM; in the assay on MYB mRNA [1], 1000 to 10000 nM; in the assay with MYB mRNA [2], 1000 to 10000 nM; with HTT mRNA it was greater than 10000 nM. In addition, in the assay with MYB mRNA [1], the AC50 lay in the range of 1000 to 10000 nM.
`Cc1cn2cc(NC(=O)c3ccc(N4CCC(NC(C)(C)C)C4)c4ccnnc34)cc(F)c2n1` (centres unmarked) [Compound 109]: the IC50 in the assay with SMN2 mRNA lay in the range of 100 to 1000 nM; with MYB mRNA [1] it was 1000 to 10000 nM; in the assay with MYB mRNA [2], 1000 to 10000 nM; with HTT mRNA, 1000 to 10000 nM. In the assay with MYB mRNA [1], this compound gave an AC50 of 1000 to 10000 nM.
For `Cc1cnc2c(C(=O)Nc3cc(F)c4nc(C)cn4c3)ccc(N3C[C@@H](C)N[C@@H](C)C3)c2n1` [Compound 217, 8-((3R,5S)-3,5-dimethylpiperazin-1-yl)-N-{8-fluoro-2-methylimidazo[1,2-a]pyridin-6-yl}-2-methylquinoxaline-5-carboxamide], the IC50 in the assay with SMN2 mRNA, in the assay with MYB mRNA [1] and in the assay on MYB mRNA [2] was less than 100 nM in each case. Besides, the AC50 with MYB mRNA [1] was less than 100 nM.
Consider `CCNC1CCN(c2ccc(C(=O)Nc3cc(F)c4nc(C)cn4c3)c3nc(C)ccc23)CC1` [Compound 228, 5-[4-(ethylamino)piperidin-1-yl]-N-{8-fluoro-2-methylimidazo[1,2-a]pyridin-6-yl}-2-methylquinoline-8-carboxamide], for which the IC50 in the assay with SMN2 mRNA is less than 100 nM; in the assay with MYB mRNA [1], less than 100 nM; with MYB mRNA [2], less than 100 nM; in the assay on HTT mRNA, 100 to 1000 nM. In the assay on MYB mRNA [1], this compound gave an AC50 of 100 to 1000 nM.
`COCCOc1ccc2c(N3CCC(N(C)C)CC3)ccc(C(=O)Nc3cc(F)c4nc(C)cn4c3)c2n1` [Compound 229, 5-[4-(dimethylamino)piperidin-1-yl]-N-{8-fluoro-2-methylimidazo[1,2-a]pyridin-6-yl}-2-(2-methoxyethoxy)quinoline-8-carboxamide]: the IC50 with SMN2 mRNA was less than 100 nM; in the assay with MYB mRNA [1], 100 to 1000 nM; in the assay with MYB mRNA [2], 100 to 1000 nM; with HTT mRNA it was greater than 10000 nM. Further, in the assay on MYB mRNA [1], the AC50 was less than 100 nM.
Regarding `Cc1cn2cc(NCc3ccc(N4CCNCC4)c4ccnnc34)cc(F)c2n1` [Compound 230, 8-fluoro-2-methyl-N-{[5-(piperazin-1-yl)cinnolin-8-yl]methyl}imidazo[1,2-a]pyridin-6-amine], the IC50 was greater than 10000 nM in the assay with SMN2 mRNA, greater than 10000 nM in the assay on MYB mRNA [1], greater than 10000 nM in the assay on MYB mRNA [2] and 1000 to 10000 nM with HTT mRNA. Further, the AC50 in the assay on MYB mRNA [1] was greater than 10000 nM.
Regarding `CNC1CCN(c2ccc(C(=O)Nc3cc(F)c4nc(C)cn4c3)c3nnccc23)C1` (centres unmarked) [Compound 231, N-{8-fluoro-2-methylimidazo[1,2-a]pyridin-6-yl}-5-[3-(methylamino)pyrrolidin-1-yl] cinnoline-8-carboxamide], the IC50 in the assay with SMN2 mRNA is less than 100 nM; with MYB mRNA [1], less than 100 nM; with MYB mRNA [2], less than 100 nM; in the assay on HTT mRNA, 1000 to 10000 nM. For the same compound, the AC50 in the assay on MYB mRNA [1] is less than 100 nM.
`COCCOc1ccc2c(N3C[C@@H](C)N[C@@H](C)C3)ccc(C(=O)Nc3cc(F)c4nc(C)cn4c3)c2n1` [Compound 232, 5-[(3R,5S)-3,5-dimethylpiperazin-1-yl]-N-{8-fluoro-2-methylimidazo[1,2-a]pyridin-6-yl}-2-(2-methoxyethoxy)quinoline-8-carboxamide]: the IC50 in the assay with SMN2 mRNA is less than 100 nM; in the assay with MYB mRNA [1], 100 to 1000 nM; with MYB mRNA [2] it was 100 to 1000 nM; in the assay with HTT mRNA it was 1000 to 10000 nM. This compound registered an AC50 in the assay with MYB mRNA [1] of 100 to 1000 nM.
Turning to `CCNC1CCN(c2ccc(C(=O)Nc3cc(F)c4nc(C)cn4c3)c3nc(OCCOC)ccc23)CC1` [Compound 233, 5-[4-(ethylamino)piperidin-1-yl]-N-{8-fluoro-2-methylimidazo[1,2-a]pyridin-6-yl}-2-(2-methoxyethoxy)quinoline-8-carboxamide], the IC50 is less than 100 nM with SMN2 mRNA, 100 to 1000 nM in the assay on MYB mRNA [1], 100 to 1000 nM in the assay with MYB mRNA [2] and 1000 to 10000 nM in the assay with HTT mRNA. The compound also displayed an AC50 with MYB mRNA [1] of 100 to 1000 nM.
